# Source: ChEMBL document CHEMBL3301361, “Experimental in vitro DMPK and physicochemical data on a set of publicly disclosed compounds”
# Legend:
# physchem [1] = test: physchem
# physchem [2] = conditions: pH 7.4 buffer
# in vitro [3] = conditions: human
# in vitro [4] = conditions: hepatocytes
# physchem [5] = test: physchem; remark: listed apart in the source
# in vitro [6] = conditions: mouse, plasma
# in vitro [7] = conditions: human, plasma
# physchem [8] = conditions: octan-1-ol/water
# in vitro [9] = conditions: SD, HW or BN, rat, plasma
# in vitro [10] = conditions: Beagle, dog, plasma
# in vitro [11] = conditions: human, hepatocytes
Structure (SMILES),pKa (physchem [5]),fraction unbound at 5 h (in vitro [6]),fraction unbound at 5 h (in vitro [7]; PPB),"logD (physchem [8]; pH 7.4, LogD7.4)",also measured
CC(C)[C@@H]1CC[C@@H](C)C[C@@H]1P(=O)(c1ccccc1)c1ccccc1,,0.0039,,,
C[C@H]1CN(Cc2cc(Cl)ccc2OCC(=O)O)CCN1C(=O)Cc1ccccc1,2.5,,,,pKa (physchem [1]): 7; logD (physchem [8]; pH 7.4): 0.18; fraction unbound at 5 h (in vitro [7]): 0.0262; fraction unbound at 5 h (in vitro [9]): 0.11; fraction unbound at 5 h (in vitro [10]): 0.0784; microsomal CLint (in vitro [3]; microsomes): < 3 µL/min/mg
Cc1[nH]c(C(=O)NC2CCN(c3ncc(C(=O)O)s3)CC2)c(Cl)c1Cl,,0.197,0.0293,,
Cc1nn(C2CCOCC2)c(NS(=O)(=O)c2ccc(C3CC3)cc2)c1C(=O)N[C@@H](C)C(C)(C)C,5,,0.0736,1.23,fraction unbound at 5 h (in vitro [9]): 0.11; fraction unbound at 5 h (in vitro [10]): 0.107
N#Cc1c(-c2ccc(-c3ccccc3Cl)cc2)nc2ccncc2c1O,,0.0022,0.0008,,
Cc1nn(C)c(C)c1-c1ccc(-c2nc3ccncc3c(O)c2C#N)cc1,,0.0343,,,
COCC#Cc1cccc(C2(c3ccc(OC(F)F)cc3)N=C(N)N3CC(F)(F)CN=C32)c1 (configuration not stated),,0.013,0.0111,,
C[C@@H](CC(=O)OC(C)(C)C)NC(=O)C1=NOC(C(O)(C(F)(F)F)C(F)(F)F)C1 (some centres not stated),,0.201,,,
COCCOc1nc(N)c2[nH]c(=O)n(Cc3ccccc3)c2n1,9.5,,0.105,2.26,pKa (physchem [1]): 2.4; fraction unbound at 5 h (in vitro [9]): 0.376; microsomal CLint (in vitro [3]; liver microsomes): < 3 µL/min/mg
CN1C(=N)N[C@](C)(c2cc(-c3cccc(C#N)c3)cs2)CC1=O,,0.249,0.0836,,
CC#Cc1cncc(-c2csc([C@]3(C)CC(=O)N(C)C(N)=N3)c2)c1,,0.17,0.119,,
CCC#Cc1cncc(-c2ccc3c(c2)C2(N=C(C)C(N)=N2)[C@]2(CC[C@H](OC)CC2)C3)c1 (some centres not stated),,0.02,,,
O=C(O)COc1cccc(N2CCC(CN3CCC(Oc4ccc(Cl)c(Cl)c4)CC3)CC2)c1,3.7,,,,pKa (physchem [1]): 9.3; microsomal CLint (in vitro [3]; liver microsomes): 12 µL/min/mg; hepatocyte CLint (in vitro [4]): < 3 µL/min/1e6 cells
CC#Cc1cncc(-c2cccc(C3(c4cc(C)c(OC)c(C)c4)N=C(C)C(N)=N3)c2)c1 (configuration not stated),,0.006,0.002,,
CC(C)S(=O)(=O)N(C)c1cc(C(=O)N[C@@H](Cc2ccccc2)[C@@H](N)CF)cc(NC[C@H]2C[C@@H]2C)n1,,0.0191,0.0447,,
CCNc1cc(C(=O)N[C@@H](Cc2ccccc2)[C@H](O)CNCc2cccc(C(F)(F)F)c2)c(F)c(N2CCCCS2(=O)=O)c1,,0.016,0.0119,,
Cn1c(-c2cccc(F)c2)nc2c(N)nc(C#CC3(O)CCCC3)nc21,,0.0752,0.119,,
N#Cc1ccc(NC(=O)Nc2ccccc2Br)c2nn[nH]c12,6.2,,0.0042,1.64,fraction unbound at 5 h (in vitro [10]): 0.0049; microsomal CLint (in vitro [3]; microsomes): 23 µL/min/mg; hepatocyte CLint (in vitro [4]): 69 µL/min/1e6 cells
CCCC[C@H](NC[C@@H]1Cc2cccc(c2)CCCCc2cc(cc(N(CCC)S(C)(=O)=O)c2)C(=O)N1)C(=O)NCC(C)C,,0.002,0.004,,
OC1(c2ccc(Cl)cc2)CCN(Cc2c[nH]c3ccccc23)CC1,,0.0872,,,logD (physchem [8]; pH 7.4): 2.25; solubility thermodynamic (physchem [2]): 562 µM
Fc1ccc(-c2c[nH]c(C3CCN(Cc4ccn(-c5ccc(C(F)(F)F)cc5)c4)CC3)n2)cc1,,0.0023,0.0009,,
CCCSc1ccc2nc(NC(=O)OC)[nH]c2c1 [ALBENDAZOLE],10.5,,,,pKa (physchem [1]): 5.88; logD (physchem [8]; pH 7.4): 3.24; solubility thermodynamic (physchem [2]): 1.6 µM; fraction unbound at 5 h (in vitro [7]): 0.0457; fraction unbound at 5 h (in vitro [9]): 0.0581; microsomal CLint (in vitro [3]; microsomes): 34.7 µL/min/mg; hepatocyte CLint (in vitro [4]): 83.2 µL/min/1e6 cells
CCOc1cc2c(c(F)c1OCC)C(=N)N(CC(=O)c1cc(N3CCOCC3)c(OC)c(C(C)(C)C)c1)C2 [ATOPAXAR],,0.0025,0.0021,,
CCCn1c(=O)c2[nH]c(-c3cnn(Cc4cccc(C(F)(F)F)c4)c3)nc2n(CC)c1=O [GS 6201],,0.001,,,
CN1CCN(CC(=O)N2c3ccccc3C(=O)Nc3cccnc32)CC1 [PIRENZEPINE],10.7,,0.76,-0.49,pKa (physchem [1]): 7.88; microsomal CLint (in vitro [3]; liver microsomes): < 3 µL/min/mg; hepatocyte CLint (in vitro [4]): 6.76 µL/min/1e6 cells
CCN(CC)CCNC(=O)c1ccc(NS(C)(=O)=O)cc1 [SEMATILIDE],7.52,,0.849,,pKa (physchem [1]): 9.35; fraction unbound at 5 h (in vitro [9]): 0.899; fraction unbound at 5 h (in vitro [10]): 0.899

# Continued, in another order:
pKa (physchem [5]),fraction unbound at 5 h (in vitro [6]),fraction unbound at 5 h (in vitro [7]; PPB),"logD (physchem [8]; pH 7.4, LogD7.4)",Structure (SMILES),also measured
2.9,,,,Cc1cc(CN(CC(=O)Nc2ccc(Cl)cc2Cl)C2CCCCC2)ccc1OCC(=O)O,pKa (physchem [1]): 6.7; solubility thermodynamic (physchem [2]): 813 µM; microsomal CLint (in vitro [3]; microsomes): 101 µL/min/mg; hepatocyte CLint (in vitro [4]): 43.4 µL/min/1e6 cells
,0.0321,0.0179,,Nc1scc2c(C(=O)NC3CC3)nn(-c3ccc(Cl)cc3)c(=O)c12,
,0.0219,0.0099,,CC(C)NC(=O)c1nn(-c2ccc(Cl)cc2)c(=O)c2c(N)scc12,
,0.0043,,,O=c1c2cc(-c3ccc(Cl)cc3)oc2ccn1-c1ccc2c(cnn2CCN2CCCC2)c1,
,0.0428,,,C/C=C/c1ccc(Oc2nnnn2-c2ccc(C(N)=O)cc2)c(OC)c1,fraction unbound at 5 h (in vitro [7]): 0.0268
3.1,,,2.41,Cc1cc(CN2Cc3ccccc3C[C@H]2C(=O)Nc2ccc(Cl)cc2Cl)ccc1OCC(=O)O,pKa (physchem [1]): 6.2; solubility thermodynamic (physchem [2]): 347 µM; microsomal CLint (in vitro [3]; microsomes): 11 µL/min/mg; hepatocyte CLint (in vitro [4]): 31 µL/min/1e6 cells
3.4,,0.0268,-0.43,CCS(=O)(=O)c1ccc(-c2cc(Cl)ccc2OCC(=O)O)c(Cl)c1,fraction unbound at 5 h (in vitro [10]): 0.0082; microsomal CLint (in vitro [3]; liver microsomes): < 3 µL/min/mg
4.2,,0.0049,1.35,CCC(CC)NC(=O)c1c(C)nn(-c2ccccc2)c1NS(=O)(=O)c1ccc(C)cc1,fraction unbound at 5 h (in vitro [9]): 0.03; fraction unbound at 5 h (in vitro [10]): 0.0418; microsomal CLint (in vitro [3]; liver microsomes): 23.6 µL/min/mg; hepatocyte CLint (in vitro [4]): 13.5 µL/min/1e6 cells; hepatocyte CLint (in vitro [11]): < 3 µL/min/1e6 cells
3.7,,0.0052,0.06,Cc1ccc2c(c1)c(S(=O)(=O)c1ccc(Cl)cc1)c(C)n2CC(=O)O,fraction unbound at 5 h (in vitro [10]): 0.0167; microsomal CLint (in vitro [3]; liver microsomes): 7 µL/min/mg
,0.0013,,3.45,N#Cc1c(-c2ccc(-c3ccccc3OC(F)(F)F)cc2)nc2ccncc2c1O,solubility thermodynamic (physchem [2]): 3.3 µM
,0.0149,0.0011,,N#CCOc1ccccc1-c1ccc(-c2nc3ccncc3c(O)c2C#N)cc1,
,0.0005,,,CC(C)Oc1ccc(-c2nc(-c3cccc4c(CCC(=O)O)c[nH]c34)no2)cc1Cl,
5.05,,0.0033,1.68,COc1ccc(COc2nc(Br)cnc2NS(=O)(=O)c2ccc(C)cc2)cc1OCCN(C)C,pKa (physchem [1]): 8.8; solubility thermodynamic (physchem [2]): 77.6 µM; microsomal CLint (in vitro [3]; liver microsomes): 7 µL/min/mg; hepatocyte CLint (in vitro [4]): 31 µL/min/1e6 cells
,0.11,,2.8,Nc1scc2c(C(=O)NC3CC3)nn(-c3ccc(F)cc3)c(=O)c12,
5,,0.0018,1.59,Cc1ccc2c(c1)c(-c1ccnc3cc(Cl)ccc13)c(C)n2CC(=O)O,pKa (physchem [1]): 2.6; fraction unbound at 5 h (in vitro [10]): 0.0035; microsomal CLint (in vitro [3]; liver microsomes): 4 µL/min/mg
,0.02,0.0191,,COc1cc(Nc2nc3c(c(Cc4ccccc4)n2)CN(CCO)CC3)ccc1-n1cnc(C)c1,
,0.0409,0.0293,,NC1=NC(c2ccnc(C(F)(F)F)c2)(c2ccc(F)c(-c3cncnc3)c2)c2cccc(F)c21 (configuration not stated),
3.19,,0.02,,O=S(=O)(Nc1ncns1)c1cc(F)c(Oc2ccc(Cl)cc2-c2ccnn2C2CNC2)cc1F,pKa (physchem [1]): 10.1; fraction unbound at 5 h (in vitro [9]): 0.0532; fraction unbound at 5 h (in vitro [10]): 0.0437
5.5,,0.0041,,CN(C)S(=O)(=O)NC(=O)CCCc1c(-c2ccc(F)cc2)[nH]c2ccc(C#N)cc12,solubility thermodynamic (physchem [2]): 4.8 µM; fraction unbound at 5 h (in vitro [9]): 0.0042; fraction unbound at 5 h (in vitro [10]): 0.0196; microsomal CLint (in vitro [3]; microsomes): 8.86 µL/min/mg; hepatocyte CLint (in vitro [4]): < 3 µL/min/1e6 cells
,0.0021,,3.15,COc1cc(-n2nnc3cc(-c4ccc(Cl)cc4)sc3c2=O)ccc1N1CC[C@@H](O)C1,
,0.0119,0.003,,O=C(Nc1ccc(Cl)c(C(=O)Nc2cccnc2)c1)c1cccc(C(F)(F)F)c1,
,0.0005,,,Fc1ccc(-c2cc(C3CCN(Cc4ccn(-c5ccc(C(F)(F)F)cc5)c4)CC3)no2)cc1,
,0.0051,0.013,,O=C(CC1CCN(Cc2ccn(-c3ccc(C(F)(F)F)cc3)c2)CC1)NC(c1ccncc1)c1ccc(Cl)cc1 (configuration not stated),
,0.0268,,2.8,COc1ccc(-c2cc(C(F)F)nn2-c2ccc(S(N)(=O)=O)cc2)cc1F [DERACOXIB],
5.9,,0.0029,2.6,O=C(Nc1ccc(Cl)c(S(=O)(=O)N2CCNCC2)c1O)Nc1cccc(F)c1Cl [ELUBRIXIN],pKa (physchem [1]): 8.5; solubility thermodynamic (physchem [2]): 457 µM; fraction unbound at 5 h (in vitro [9]): 0.0106; fraction unbound at 5 h (in vitro [10]): 0.0127; hepatocyte CLint (in vitro [4]): 41.4 µL/min/1e6 cells; hepatocyte CLint (in vitro [11]): < 3 µL/min/1e6 cells
,0.19,,2.72,CC[C@H](Nc1ncnc2[nH]cnc12)c1nc2cccc(F)c2c(=O)n1-c1ccccc1 [IDELALISIB],
6.2,,0.0024,,Nc1[nH]ncc1-c1cc(Cl)ccc1Oc1cc(F)c(S(=O)(=O)Nc2cscn2)cc1Cl [PF-05089771],fraction unbound at 5 h (in vitro [9]): 0.0055; fraction unbound at 5 h (in vitro [10]): 0.0048; hepatocyte CLint (in vitro [11]): 5.62 µL/min/1e6 cells
